# Source: publication PMC3943356 (Bioorganic & medicinal chemistry letters, 2013)
# Counter-ions that a name gives are not always drawn. Like-named read-outs stand apart in the source and are kept apart here.
# Tests used:
# VGLUT [1] = assay: Inhibition of 3H-L-Glu uptake into synaptic vesicles prepared from rat brain; conditions: for reduction (block) of L-Glu uptake: compound at 250 µM, 3H-L-Glu 250 µM
# VGLUT [2] = target: VGLUT
# KA receptors = conditions: cited from earlier work
# AMPA receptors = conditions: cited from earlier work
# NMDA receptor = conditions: cited from earlier work
# VGLUT [3] = conditions: read-out: Ki at VGLUT; cited from earlier work
compound,measurement,setting,value
"O=C(O)c1cc(C(=O)O)c2c(ccc3cc4ccccc4cc32)n1 [5,6-NQDC, Naphtho[2,3-f]quinoline-1,3-dicarboxylic acid]",reduction (block) of L-Glu uptake,VGLUT [1],over 80%
same,Ki,VGLUT [2],~60 µM
"O=C(O)c1cc(C(=O)O)c2ccc3cc4ccccc4cc3c2n1 [7,8-NQDC, Naphtho[2,3-h]quinoline-2,4-dicarboxylic acid]",reduction (block) of L-Glu uptake,VGLUT [1],similarly effective
same,Ki,VGLUT [2],~60 µM
C[C@]12CC[C@@H]3c4ccc(OC(=O)CCC(=O)O)cc4CC[C@H]3[C@@H]1CCC2=O [Estrone hemisuccinate],reduction (block) of L-Glu uptake,VGLUT [1],inactive
C[C@]12CC[C@@H]3c4ccc(O)cc4CC[C@H]3[C@@H]1CCC2=O [Estrone],reduction (block) of L-Glu uptake,VGLUT [1],did not block L-Glu uptake to any appreciable level
"N[C@@H](CCC(=O)O)C(=O)O [L-Glu, Glutamate]",Km,"VGLUT [1]; read-out: Km of L-Glu uptake, Lineweaver-Burk plot, Fig. 3",2.5 mM
CC(=O)[C@H]1CC[C@H]2[C@@H]3CC[C@@H]4C[C@@H](OS(=O)(=O)O)CC[C@]4(C)[C@H]3CC[C@]12C [Pregnanolone sulfate],effect on KA receptors,KA receptors,inhibits
same,activity relative to the endogenous substrate L-Glu,VGLUT [1],approximately 100 fold
same,mechanism of inhibition,"VGLUT [1]; Lineweaver-Burk plot, increase in Km,app, no change in Vmax",competitive inhibition
same,reduction (block) of L-Glu uptake,VGLUT [1],85%
same,effect on AMPA receptors,AMPA receptors,inhibits
same,effect on NMDA receptor,NMDA receptor,inhibits
CC(=O)[C@H]1CC[C@H]2[C@@H]3CC=C4C[C@@H](O)CC[C@]4(C)[C@H]3CC[C@]12C [Pregnenolone],reduction (block) of L-Glu uptake,VGLUT [1],did not block L-Glu uptake to any appreciable level
CC(C)CC1C(=O)N2CCCC2C2(O)OC(NC(=O)C3C=C4c5cccc6[nH]c(Br)c(c56)CC4N(C)C3)(C(C)C)C(=O)N12 (centres unmarked) [bromocryptine],Ki,VGLUT [3],~22 µM
Pregnenolone sulfate,reduction (block) of L-Glu uptake,VGLUT [1],70%
same,effect on NMDA receptor,NMDA receptor,potentiate
